Earlier results as cited in patent US20130172260A1, “PREVENTION OF INDWELLING DEVICE RELATED INFECTION: COMPOSITION AND METHODS” (priority 2003, published 2013).

Test system: Staphylococcus epidermidis
Details: 5 milli Molar in a medium

O=C(O)c1ccccc1O [salicylic acid]
inhibited both growth and Biofilm production: up to 55%
